Results taken from patent publication US20160177395A1, “BIOMARKERS FOR THE PREDICTION OF RENAL INJURY” (priority 2007, published 2016).
Several values for one entry are separate records, joined by “and”; a condition that tells them apart may be missing. Equal values may be shown once. Entries after “also recorded” stand apart in the source; their conditions may differ.

Key:
[1] = tested on: kidney tissues of treated or untreated rats; assay: Real-time qRT-PCR of signature amplicons, validation stage, labeled and un-labeled samples (Table 23); conditions: for H31883_DB71_seg13 normalized qRT-PCR result / MUSCYCG1R_DB81_seg19-20 normalized qRT-PCR result / W41270_DB81_seg11 normalized qRT-PCR result: labeled sample, one line per animal
Summary of the method: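 Each of four signature genes measured as wild-type and alternative-splice amplicons by qRT-PCR in treated or untreated rat kidney. Normalization was two-step: housekeeping-gene factor, then inter-plate correction from shared samples on a shuffled control plate; final values rescaled for display.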

[2] = tested on: Sprague-Dawley Crl:CD(SD) rats; conditions: rat, in vivo;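 note: control rats received saline intraperitoneally, and the organs examined were adrenals, brain, kidneys, liver, spleen and thymus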
Description: (§1) Control animals were treated intraperitoneal with saline.
(§2) Randomization and group allocation: prior to treatment, the animals were assigned to the experimental groups based on their body weight. Mean body weight of each group at randomization was not deviate±20% of the mean population weight. Males and females were randomized separately. For the randomization, a computer program was used.
(§3) The day before autopsy, urinalysis was performed and blood samples were taken for hematology and clinical chemistry examinations.
(§4) On the day of autopsy the animals were anaesthetized with isoflurane, blood was collected for PBMC isolation then subjected to autopsy. Tissues and organs (adrenals, brain, kidneys, liver, spleen and thymus) were weighed and subjected to gross pathological and histopathological examinations.

[3] = tested on: Sprague-Dawley Crl:CD(SD) rats; assay: Rat toxicity study, single, 5-day and 28-day treatment (clinical observation, clinical pathology, autopsy, organ weights, histopathology);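 note: control rats received saline intraperitoneally, and the organs examined were adrenals, brain, kidneys, liver, spleen and thymus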
Description: as §1, §2, §3, §4

[4] = day1, female rat kidney, listed as Tob
[5] = day1, male rat kidney, listed as Tob
[6] = day28, female rat kidney, listed as Tob
[7] = day28, male rat kidney, listed as Tob
[8] = labeled samples, day1, kidney of individual male/female rats, listed as Tob
[9] = labeled samples, day5, kidney of individual male/female rats, listed as Tob
[10] = labeled samples, day28, kidney of individual male/female rats, listed as Tob

## NC[C@H]1O[C@H](O[C@H]2[C@H](O)[C@@H](O[C@H]3O[C@H](CO)[C@@H](O)[C@H](N)[C@H]3O)[C@H](N)C[C@@H]2N)[C@H](N)C[C@@H]1O [Tobramycin]
[1]; [4]
  H31883_DB71_seg13 normalized qRT-PCR result: 1.153 and 0.799 and 0.982
  MUSCYCG1R_DB81_seg19-20 normalized qRT-PCR result: 5.307 and 1.195 and 1.623
  W41270_DB81_seg11 normalized qRT-PCR result: 1.5 and 0.73 and 1.166
[1]; [5]
  H31883_DB71_seg13 normalized qRT-PCR result: 1.126 and 0.999 and 1.049
  MUSCYCG1R_DB81_seg19-20 normalized qRT-PCR result: 2.04 and 0.825 and 1.223
  W41270_DB81_seg11 normalized qRT-PCR result: 1.43 and 1.083 and 1.619
[1]; [6]
  H31883_DB71_seg13 normalized qRT-PCR result: 0.876 and 0.621 and 0.987
  MUSCYCG1R_DB81_seg19-20 normalized qRT-PCR result: 0.959 and 1.021 and 1.478
  W41270_DB81_seg11 normalized qRT-PCR result: 1.073 and 1.144 and 1.118
[1]; [7]
  H31883_DB71_seg13 normalized qRT-PCR result: 0.39 and 0.832 and 0.803
  MUSCYCG1R_DB81_seg19-20 normalized qRT-PCR result: 0.679 and 1.273 and 1.397
  W41270_DB81_seg11 normalized qRT-PCR result: 0.61 and 1.379 and 1.281
[1]; [8]
  H31883_DB71_seg13 normalized qRT-PCR expression (Cyclin-G1 (CCNG1) transcript): 1.137 and 1.104 and 1.132 and 0.912 and 0.563 and 0.661
  MUSCYCG1R_DB81_seg19-20 normalized qRT-PCR expression: 1.582 and 0.967 and 1.506 and 1.173 and 1.025 and 0.987
  W41270_DB81_seg11 normalized qRT-PCR expression (tumor necrosis factor receptor superfamily, member 12a transcript): 1.601 and 1.084 and 0.577 and 0.949 and 0.809 and 0.983
[1]; [9]
  AI045075_DB71_seg6 normalized qRT-PCR expression (Interferon stimulated exonuclease 20 (ISG20) transcript): 1.327 and 1.644 and 1.614 and 1.367 and 2.402 and 1.224
  H31883_DB71_seg13 normalized qRT-PCR expression (Cyclin-G1 (CCNG1) transcript): 0.863 and 0.855 and 1.237 and 0.988 and 0.858 and 1.646
  MUSCYCG1R_DB81_seg19-20 normalized qRT-PCR expression: 0.99 and 1.589 and 0.968 and 1.6 and 1.424 and 2.062
  W41270_DB81_seg11 normalized qRT-PCR expression (tumor necrosis factor receptor superfamily, member 12a transcript): 0.559 and 2.483 and 0.802 and 1.529 and 2.317 and 0.946
  W64472_DB81_seg2 normalized qRT-PCR expression (Interferon stimulated exonuclease 20 (ISG20) transcript): 1.193 and 1.871 and 1.449 and 1.063 and 1.785 and 1.447
  W83813_DB81_seg27 normalized qRT-PCR expression: 0.589 and 1.262 and 0.892 and 1.058 and 0.942 and 1.117
[1]; [10]
  H31883_DB71_seg13 normalized qRT-PCR expression (Cyclin-G1 (CCNG1) transcript): 0.624 and 0.324 and 0.69 and 0.528 and 0.551 and 0.807
  MUSCYCG1R_DB81_seg19-20 normalized qRT-PCR expression: 0.713 and 0.76 and 1.087 and 0.889 and 1.268 and 0.903
  W41270_DB81_seg11 normalized qRT-PCR expression (tumor necrosis factor receptor superfamily, member 12a transcript): 1.189 and 1.217 and 1.099 and 1.267 and 1.373 and 1.798
[1]; rat, in vivo
  Label: true label (Normal/Toxic), known renal toxic effect: Toxic
[2]
  Water consumption: Decrease in Tobramycin and Cadmium chloride treated females
[3]; 5-day treatment
  Autopsy findings: No effect
[3]; 28-day treatment, male and female rats
  Autopsy findings: Enlarged, discolored kidneys; also recorded: Alterations were found in the kidneys; also recorded: ♂: ↑↑, pale
